The source of these data is patent US9822137B2, “Phosphonucleosides useful in the treatment of viral disorders” (UNIVERSITY COLLEGE CORK, priority 2012, dated 2017).

The structures appear in SMILES notation. Where a name gives a salt, the structure may show the parent alone. Read-outs that look alike come from different tables or passages of the source.

Usually melting point stands for the temperature, or range, at which the solid turns liquid.

For data set [1], the target named is HIV-1 reverse transcriptase (Human immunodeficiency virus type 1 group M subtype B, UniProt P04585). Kind of data set: cell-free HIV-1 RT assay with artificial homopolymeric template/primer and [3H]dNTP. The data set is classed as biochemical. Particulars: for inhibition of incorporation of [3H]dATP in poly rU/oligo dA / inhibition of incorporation of [3H]dCTP in poly rI/oligo dC: 11a and 11b at 200 μg/mL. The method, then:
To prepare the template/primers for the RT experiments, 0.15 mM poly(U), poly(A), and poly(I) were mixed with an equal volume of 0.0375 mM oligo(dA), oligo(dT), and oligo(dC), respectively. The final concentrations of the templates in the RT reaction mixture were 0.015 mM. The reaction mixture (50 μl) contained 50 mM Tris.HCl (pH 7.8), 5 mM dithiothreitol, 300 mM glutathione, 500 μM EDTA, 150 mM KCl, 5 mM MgCl2, 1.25 μg of bovine serum albumin, an appropriate concentration of labeled (tritiated) substrate dTTP, dCTP, or dATP (2 μCi/assay), a fixed concentration of the template/primer poly(A).oligo(dT) (0.015 mM), poly(I).oligo(dC) (0.015 mM), and poly(U).oligo(dA) (0.015 mM), 0.06% Triton X-100, 10 μl of inhibitor solution (containing various concentrations of the compounds), and 1 μl of the RT preparation. The reaction mixtures were incubated at 37° C. for 30 min, at which time 100 μl of yeast RNA (1 mg/ml) and 1 ml of Na4P2O7 (0.02 M) in trichloroacetic acid (5% v/v) were added. The solutions were kept on ice for 30 min, after which the acid-insoluble material was washed and analyzed for radioactivity.

Data set [2] in a line: chemical stability on storage / in solution. The data set is classed as physicochemical.
The mark [3] stands for this setting: substrate [3H]dATP, template/primer poly rU.oligo dA, read-out: IC50, HIV-RT catalysed incorporation of [3H]dATP / polyrU.dA (converted).
Setting [4] is: substrate [3H]dCTP, template/primer poly rI.oligo dC, read-out: IC50, HIV-RT catalysed incorporation of [3H]dCTP / polyrI.dC (converted).
The mark [5] stands for this setting: substrate [3H]dTTP, template/primer poly rA.oligo dT, read-out: IC50, HIV-RT catalysed incorporation of [3H]dTTP / polyrA.dT (converted).

The compound `O=C(O)C(OC1CCC(n2cc(F)c(=O)[nH]c2=O)C1)P(=O)(O)O` (stereo not drawn) (as salt: ammonium) [Compound 41, 2-((3-(5-fluoro-2,4-dioxo-3,4-dihydropyrimidin-1(2H)-yl)cyclopentyl)oxy)-2-phosphonoacetic acid] registered a melting point of 243 °C.
Still for that read-out and setting: the figure for `Cc1cn([C@@H]2CC[C@H](OC(C(=O)O)P(=O)(O)O)C2)c(=O)[nH]c1=O` (relative stereo) (as salt: ammonium) [Compound 11a, cis-1-{4-[Carboxy(phosphono)methoxy]cyclopentan-1-yl}thymine] is 228 to 230 °C; for `Nc1ncnc2c1ncn2[C@@H]1CC[C@H](OC(C(=O)O)P(=O)(O)O)C1` (relative stereo) (as salt: ammonium) [Compound 11d, cis-9-{4-[Carboxy(phosphono)methoxy]cyclopentan-1-yl}adenine] it is 236 to 240 °C; for `COC(=O)C(O[C@H]1CC[C@@H](n2cc(C)c(=O)[nH]c2=O)C1)P(=O)(OC)OC` (relative stereo) [26a] it is 130 to 133 °C.
As for `Cc1cn([C@@H]2CC[C@H](OC(C(=O)O)P(=O)(O)O)C2)c(=O)[nH]c1=O` (relative stereo) [Compound 11a, cis-1-{4-[Carboxy(phosphono)methoxy]cyclopentan-1-yl}thymine], the “inhibition of incorporation of [3H]dATP in poly rU/oligo dA” value in data set [1] is “no marked, if any inhibition”. The “inhibition of incorporation of [3H]dCTP in poly rI/oligo dC” value (“inhibition of incorporation of [3H]dCTP” below) in data set [1] was “no marked, if any inhibition”. Further, the IC50 is 307 µM in data set [1] (setting [3]), more than 574 µM in data set [1] (setting [4]) and 0.431 µM in data set [1] (setting [5]).
As to `O=C(O)C(O[C@H]1CC[C@@H](n2ccc(=O)[nH]c2=O)C1)P(=O)(O)O` (relative stereo) [Compound 11b, cis-1-{4-[Carboxy(phosphono)methoxy]cyclopentan-1-yl}uracil], in data set [1], the “inhibition of incorporation of [3H]dATP in poly rU/oligo dA” value is “no marked, if any inhibition”. Moreover, the “inhibition of incorporation of [3H]dCTP” value in data set [1] was “no marked, if any inhibition”. Besides, the IC50 in data set [1] (setting [3]) was 221 µM; in data set [1] (setting [4]), more than 598 µM; in data set [1] (setting [5]) it was 3.89 µM.
The compound `Nc1ccn([C@@H]2CC[C@H](OC(C(=O)O)P(=O)(O)O)C2)c(=O)n1` (relative stereo) [Compound 11c, cis-1-{4-[Carboxy(phosphono)methoxy]cyclopentan-1-yl}cytosine] returned a melting point of more than 250 °C. Besides, in data set [1] (setting [3]), the IC50 was 108 µM. The IC50 in data set [1] (setting [4]) was 4.8 µM. In addition, the IC50 in data set [1] (setting [5]) is 231 µM.
Consider `COC(=O)C(O[C@H]1C=C[C@@H](n2ccc(N)nc2=O)C1)P(=O)(OC)OC` (relative stereo) [Compound 24c, cis-1-{4-[(Methoxycarbonyl)dimethylphosphonomethoxy]cyclopent-2-en-1-yl}cytosine], for which, in data set [2] (36 hours at room temperature), the “stability in deuterated chloroform” value is “Significant decomposition”.
Consider `COC(=O)C(O[C@H]1CC[C@@H](n2ccc(=O)[nH]c2=O)C1)P(=O)(OC)OC` (relative stereo) [Compound 26b, cis-1-{4-[(methoxycarbonyl)dimethylphosphonomethoxy]cyclopentan-1-yl}uracil], for which the “stability on storage at room temperature” value in data set [2] (room temperature, extended periods, neat, solid or in solution) is “no noticeable decomposition”. In data set [2] (sample approximately 2 years old, stored at room temperature), the “purity by 1H NMR of aged sample” value is 95%.
Consider `COC(=O)C(O[C@H]1CC[C@@H](n2ccc(N)nc2=O)C1)P(=O)(OC)OC` (relative stereo) [Compound 26c, cis-1-{4-[(Methoxycarbonyl)dimethylphosphonomethoxy]cyclopentan-1-yl}cytosine], for which the “stability in deuterated chloroform” value in data set [2] (16 hours at room temperature) was “Significant decomposition”.
With `COC(=O)C(O[C@H]1CC[C@@H](n2cnc3nc(N)nc(Cl)c32)C1)P(=O)(OC)OC` (relative stereo) [Compound N-7-26e, cis-2-Amino-7-{4-[(methoxycarbonyl)dimethylphosphonornethoxy]cyclopentan-1-yl}-6-chloropurine], the “stability in solution” value in data set [2] (within 4 days in solution) was “significant decomposition”.
Turning to `Cc1cn([C@H]2CC[C@@H](OC(C(=O)O)P(=O)(O)O)C2)c(=O)[nH]c1=O` (single isomer, unassigned; (+)) (as salt: ammonium) [(+)-11a], the melting point is 225 to 227 °C.
Same read-out and setting: the figure for `Nc1ncnc2c1ncn2[C@H]1CC[C@@H](OC(C(=O)O)P(=O)(O)O)C1` (single isomer, unassigned; (+)) (as salt: ammonium) [(+)-11d] is 234 to 239 °C; for `COC(=O)C(O[C@H]1CC[C@@H](n2cc(C)c(=O)[nH]c2=O)C1)P(=O)(OC)OC` (single isomer, unassigned; (+)) [(+)26a] it is 129 to 130 °C.
Regarding `Cc1cn([C@H]2CC[C@@H](OC(C(=O)O)P(=O)(O)O)C2)c(=O)[nH]c1=O` (single isomer, unassigned; (+)) [(+)-11a], the IC50 in data set [1] (setting [3]) was 101 µM; in data set [1] (setting [4]), more than 574 µM; in data set [1] (setting [5]), 37.3 µM.
For `O=C(O)C(O[C@@H]1CC[C@H](n2ccc(=O)[nH]c2=O)C1)P(=O)(O)O` (single isomer, unassigned; (+)) [(+)-11b], in that order: 168 µM, more than 598 µM and 120 µM.
In turn, `Nc1ccn([C@H]2CC[C@@H](OC(C(=O)O)P(=O)(O)O)C2)c(=O)n1` (single isomer, unassigned; (+)) [(+)-11c] yielded a melting point of more than 250 °C. In addition, the IC50 in data set [1] (setting [3]) was 54 µM. The IC50 in data set [1] (setting [4]) was 402 µM. The IC50 in data set [1] (setting [5]) was 23.4 µM.
As to `Nc1ncnc2c1ncn2[C@H]1CC[C@@H](OC(C(=O)O)P(=O)(O)O)C1` (single isomer, unassigned; (+)) [(+)-11d], the figures for the IC50 in data set [1] (setting [3]), in data set [1] (setting [4]) and in data set [1] (setting [5]) were 33.6 µM, more than 560 µM and 487 µM, respectively.
The compound `Cc1cn([C@@H]2CC[C@H](OC(C(=O)O)P(=O)(O)O)C2)c(=O)[nH]c1=O` (single isomer, unassigned; (-)) (as salt: ammonium) [(−)-11a] showed a melting point of 229 to 230 °C.
Same read-out and setting: the figure for `Nc1ncnc2c1ncn2[C@@H]1CC[C@H](OC(C(=O)O)P(=O)(O)O)C1` (single isomer, unassigned; (-)) (as salt: ammonium) [(−)-11d] is 237 to 241 °C; for `COC(=O)C(O[C@@H]1CC[C@H](n2cc(C)c(=O)[nH]c2=O)C1)P(=O)(OC)OC` (single isomer, unassigned; (-)) [(−)26a] it is 133 to 135 °C.
As for `Cc1cn([C@@H]2CC[C@H](OC(C(=O)O)P(=O)(O)O)C2)c(=O)[nH]c1=O` (single isomer, unassigned; (-)) [(−)-11a], the IC50 in data set [1] (IC50, HIV-RT catalysed incorporation of [3H]dATP / polyrU.dA, substrate [3H]dATP, template/primer poly rU.oligo dA) was 167 µM; in data set [1] (IC50, HIV-RT catalysed incorporation of [3H]dCTP / polyrI.dC, substrate [3H]dCTP, template/primer poly rI.oligo dC) it was more than 574 µM; in data set [1] (IC50, HIV-RT catalysed incorporation of [3H]dTTP / polyrA.dT, substrate [3H]dTTP, template/primer poly rA.oligo dT), 0.431 µM. In data set [1], the “inhibition of HIV-1-RT-catalysed incorporation of [3H]dTTP in poly rA/oligo dT” value is given as “potent inhibitory activity”.
Turning to `O=C(O)C(O[C@H]1CC[C@@H](n2ccc(=O)[nH]c2=O)C1)P(=O)(O)O` (single isomer, unassigned; (-)) [(−)-11b], the “inhibition of HIV-1-RT-catalysed incorporation of [3H]dTTP in poly rA/oligo dT” value in data set [1] is “potent inhibitory activity”. Moreover, the IC50 in data set [1] (setting [3]) was 233 µM; in data set [1] (setting [4]) it was more than 598 µM; in data set [1] (setting [5]) it was 3.29 µM.
As to `Nc1ccn([C@@H]2CC[C@H](OC(C(=O)O)P(=O)(O)O)C2)c(=O)n1` (single isomer, unassigned; (-)) [(−)-11c], the “inhibition of incorporation of [3H]dCTP” value in data set [1] is listed as “strong inhibition”. Moreover, the IC50 in data set [1] (setting [3]) was 51 µM; in data set [1] (setting [4]), 4.5 µM; in data set [1] (setting [5]), 180 µM.
On to `Nc1ncnc2c1ncn2[C@@H]1CC[C@H](OC(C(=O)O)P(=O)(O)O)C1` (single isomer, unassigned; (-)) [(−)-11d], for which the IC50 in data set [1] (setting [3]) was 0.202 µM; in data set [1] (setting [4]), more than 560 µM; in data set [1] (setting [5]), more than 560 µM.
In the case of `Cc1cn([C@H]2C[C@H](N=[N+]=[N-])[C@@H](COP(=O)(O)OP(=O)(O)OP(=O)(O)O)O2)c(=O)[nH]c1=O` [AZT-TP, reference compound], the “IC50, HIV-RT catalysed incorporation of [3H]dTTP / polyrA.dT” value in data set [1] (substrate [3H]dTTP, template/primer poly rA.oligo dT) is 0.035 ± 0.016 µg/mL.
As to `Nc1ncnc2c1ncn2[C@H]1CC[C@@H](COP(=O)(O)OP(=O)(O)OP(=O)(O)O)O1` [ddATP, reference compound], the “IC50, HIV-RT catalysed incorporation of [3H]dATP / polyrU.dA” value in data set [1] (substrate [3H]dATP, template/primer poly rU.oligo dA) was found to be 0.55 ± 0.09 µg/mL.
As for `Nc1ccn([C@H]2CC[C@@H](COP(=O)(O)OP(=O)(O)OP(=O)(O)O)O2)c(=O)n1` [ddCTP, reference compound], the “IC50, HIV-RT catalysed incorporation of [3H]dCTP / polyrI.dC” value in data set [1] (substrate [3H]dCTP, template/primer poly rI.oligo dC) is 5.0 ± 0.4 µg/mL.
